Laboratory results from US20220387491A1, “METHODS OF MAKING CELLULAR THERAPIES” (Secura Bio, Inc., priority 2019, published 2022).
Entries after “also recorded” stand apart in the source; their conditions may differ.

Key:
[1] = test system: T cells from human donors or CLL patients; assay: Ex vivo T cell expansion; format: cell-based
[2] = molecular target: T1, PI3K-γ (Homo sapiens, UniProt P48736); assay: PI3K-γ target inhibition in follicular lymphoma patients after oral dosing; format: in vivo; parameters: from tissue; host or cells: whole blood of follicular lymphoma patients after oral dosing
Protocol: (§1) The relative effects of different PI3K inhibitors on PI3K-δ and PI3K-γ cell signaling downstream of LPS and fMLP, respectively, were assessed in whole blood using phosphorylated (p)-Akt serine-473 as the readout. Briefly, LPS-stimulated monocytes and fMLP-stimulated monocytes were cultured in the presence of 2 μg/mL LPS or 50 ng/mL fMLP, respectively. After 10 minutes of stimulation, red blood cells were lysed and remaining leukocytes were fixed, permeabilized and stained with CD45, CD3, CD45RA, CD14, CD19 and p-Akt S473 (D9E clone) antibodies. Data was acquired on an LSRII cytometer (BD Biosciences) equipped with at least 4 lasers (405, 488, 561, and 640 nm). Monocytes were gated and the percentage of positive p-Akt monocytes was measured. IC50 dose curves were generated and IC50 values calculated.
(§2) At cycle 2 Day 1 pre, a timepoint corresponding to the 12 hour point when the next dose is to be given, the degree of inhibition is decreased; however, inhibition is re-established with the administration of the next dose.
Accordingly, BID should then re-establish inhibition in this 60-70% range.

[3] = read-out: Cmax (ss); reported clinical plasma exposure at recommended phase II dose (RP2D); cited from earlier work
[4] = molecular target: T2, PI3K-δ (Homo sapiens, UniProt O00329); assay: Whole blood assay, p-Akt S473 in LPS-stimulated monocytes; format: cell-based; parameters: from tissue; host or cells: whole blood; LPS-stimulated monocytes (gated by flow cytometry); conditions: for PI3K-δ inhibition at clinically achievable exposures (in words): whole blood assay related to clinical plasma exposure
Protocol: as §1
(§3) Whole blood potencies against PI3K-δ and PI3K-γ were measured through inhibition of p-Akt in LPS-stimulated monocytes and fMLP-stimulated monocytes, respectively. Whole blood assay IC50 values, which encompass enzyme inhibition, cell penetration, and protein binding of inhibitors, are related to reported clinical plasma exposures of each agent at recommended phase II dose (RP2D).

[5] = molecular target: T1, PI3K-γ; assay: Whole blood assay, p-Akt S473 in fMLP-stimulated monocytes; format: cell-based; parameters: from tissue; host or cells: whole blood; fMLP-stimulated monocytes (gated by flow cytometry); conditions: for PI3K-γ inhibition at clinically achievable exposures (in words): whole blood assay related to clinical plasma exposure
Protocol: Briefly, LPS-stimulated monocytes and fMLP-stimulated monocytes were cultured in the presence of 2 μg/mL LPS or 50 ng/mL fMLP, respectively. After 10 minutes of stimulation, red blood cells were lysed and remaining leukocytes were fixed, permeabilized and stained with CD45, CD3, CD45RA, CD14, CD19 and p-Akt S473 (D9E clone) antibodies. […] Monocytes were gated and the percentage of positive p-Akt monocytes was measured. IC50 dose curves were generated and IC50 values calculated.
as §3

[6] = test system: CD19 CAR-T cells; assay: CAR-T-mediated cytotoxicity against tumor cells; format: cell-based; conditions: addition during generation of CD19 CAR-T cells
Description: (§4) These early memory T cells populations have been associated with CAR-T cells that induce complete remissions.

[7] = test system: T cells; assay: Expression of T cell exhaustion markers (TIM-3, LAG-3) by flow cytometry; format: cell-based, human
Description: as §4

[8] = molecular target: T2, PI3K-δ; assay: PI3K-δ target inhibition in follicular lymphoma patients after oral dosing; format: in vivo; parameters: from tissue; host or cells: whole blood of follicular lymphoma patients after oral dosing
Protocol: as §1, §2

[9] = test system: T cells taken from CLL patients; assay: Proportion of early memory T cell populations; format: cell-based, human; conditions: 200 nM; compared with standard culture conditions
Description: as §4

T2 sequence (O00329 whole entry): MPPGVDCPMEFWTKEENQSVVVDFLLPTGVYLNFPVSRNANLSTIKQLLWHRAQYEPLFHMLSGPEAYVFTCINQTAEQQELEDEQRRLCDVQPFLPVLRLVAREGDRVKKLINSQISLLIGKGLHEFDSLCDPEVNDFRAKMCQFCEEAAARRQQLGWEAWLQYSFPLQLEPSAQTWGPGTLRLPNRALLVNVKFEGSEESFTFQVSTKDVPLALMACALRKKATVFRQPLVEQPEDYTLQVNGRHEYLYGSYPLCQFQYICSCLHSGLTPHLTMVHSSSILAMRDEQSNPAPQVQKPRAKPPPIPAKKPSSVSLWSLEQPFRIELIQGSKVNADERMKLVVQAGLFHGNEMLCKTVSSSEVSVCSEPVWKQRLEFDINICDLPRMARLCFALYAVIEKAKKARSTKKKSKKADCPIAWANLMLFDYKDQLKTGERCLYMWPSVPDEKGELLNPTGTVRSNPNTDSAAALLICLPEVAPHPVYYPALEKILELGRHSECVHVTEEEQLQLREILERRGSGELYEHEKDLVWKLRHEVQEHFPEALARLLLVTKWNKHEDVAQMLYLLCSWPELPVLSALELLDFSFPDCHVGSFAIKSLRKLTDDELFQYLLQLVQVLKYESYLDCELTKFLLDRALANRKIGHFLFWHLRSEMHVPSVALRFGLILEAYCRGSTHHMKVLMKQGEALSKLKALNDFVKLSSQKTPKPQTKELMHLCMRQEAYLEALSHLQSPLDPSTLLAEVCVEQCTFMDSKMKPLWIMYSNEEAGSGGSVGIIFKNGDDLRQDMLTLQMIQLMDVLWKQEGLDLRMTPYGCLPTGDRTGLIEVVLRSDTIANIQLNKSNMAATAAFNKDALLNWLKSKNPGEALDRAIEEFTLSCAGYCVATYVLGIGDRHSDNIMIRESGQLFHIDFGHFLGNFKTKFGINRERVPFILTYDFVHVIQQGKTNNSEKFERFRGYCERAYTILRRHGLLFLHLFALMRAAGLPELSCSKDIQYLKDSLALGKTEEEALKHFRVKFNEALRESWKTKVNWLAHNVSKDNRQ
T2 sequence (P27986 whole entry partner): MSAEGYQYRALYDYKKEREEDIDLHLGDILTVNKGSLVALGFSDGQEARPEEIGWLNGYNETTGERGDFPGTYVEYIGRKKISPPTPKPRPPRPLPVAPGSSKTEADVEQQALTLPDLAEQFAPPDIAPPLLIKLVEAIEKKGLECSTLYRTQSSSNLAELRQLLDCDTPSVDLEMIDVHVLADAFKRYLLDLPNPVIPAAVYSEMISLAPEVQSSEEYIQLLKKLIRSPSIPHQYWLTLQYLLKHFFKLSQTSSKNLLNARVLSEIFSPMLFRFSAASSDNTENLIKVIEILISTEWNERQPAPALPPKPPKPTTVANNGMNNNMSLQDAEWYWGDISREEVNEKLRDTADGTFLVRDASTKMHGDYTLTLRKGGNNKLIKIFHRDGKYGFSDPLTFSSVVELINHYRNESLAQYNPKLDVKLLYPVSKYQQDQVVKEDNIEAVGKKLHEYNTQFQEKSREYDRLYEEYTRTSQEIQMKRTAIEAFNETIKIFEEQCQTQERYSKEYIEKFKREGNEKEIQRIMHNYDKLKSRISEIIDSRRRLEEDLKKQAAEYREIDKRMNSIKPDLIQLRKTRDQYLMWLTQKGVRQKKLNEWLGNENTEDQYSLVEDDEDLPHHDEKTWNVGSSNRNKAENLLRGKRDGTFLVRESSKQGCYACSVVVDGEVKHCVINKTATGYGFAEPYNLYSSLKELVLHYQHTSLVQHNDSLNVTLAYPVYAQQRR
T1 sequence (P48736 whole entry): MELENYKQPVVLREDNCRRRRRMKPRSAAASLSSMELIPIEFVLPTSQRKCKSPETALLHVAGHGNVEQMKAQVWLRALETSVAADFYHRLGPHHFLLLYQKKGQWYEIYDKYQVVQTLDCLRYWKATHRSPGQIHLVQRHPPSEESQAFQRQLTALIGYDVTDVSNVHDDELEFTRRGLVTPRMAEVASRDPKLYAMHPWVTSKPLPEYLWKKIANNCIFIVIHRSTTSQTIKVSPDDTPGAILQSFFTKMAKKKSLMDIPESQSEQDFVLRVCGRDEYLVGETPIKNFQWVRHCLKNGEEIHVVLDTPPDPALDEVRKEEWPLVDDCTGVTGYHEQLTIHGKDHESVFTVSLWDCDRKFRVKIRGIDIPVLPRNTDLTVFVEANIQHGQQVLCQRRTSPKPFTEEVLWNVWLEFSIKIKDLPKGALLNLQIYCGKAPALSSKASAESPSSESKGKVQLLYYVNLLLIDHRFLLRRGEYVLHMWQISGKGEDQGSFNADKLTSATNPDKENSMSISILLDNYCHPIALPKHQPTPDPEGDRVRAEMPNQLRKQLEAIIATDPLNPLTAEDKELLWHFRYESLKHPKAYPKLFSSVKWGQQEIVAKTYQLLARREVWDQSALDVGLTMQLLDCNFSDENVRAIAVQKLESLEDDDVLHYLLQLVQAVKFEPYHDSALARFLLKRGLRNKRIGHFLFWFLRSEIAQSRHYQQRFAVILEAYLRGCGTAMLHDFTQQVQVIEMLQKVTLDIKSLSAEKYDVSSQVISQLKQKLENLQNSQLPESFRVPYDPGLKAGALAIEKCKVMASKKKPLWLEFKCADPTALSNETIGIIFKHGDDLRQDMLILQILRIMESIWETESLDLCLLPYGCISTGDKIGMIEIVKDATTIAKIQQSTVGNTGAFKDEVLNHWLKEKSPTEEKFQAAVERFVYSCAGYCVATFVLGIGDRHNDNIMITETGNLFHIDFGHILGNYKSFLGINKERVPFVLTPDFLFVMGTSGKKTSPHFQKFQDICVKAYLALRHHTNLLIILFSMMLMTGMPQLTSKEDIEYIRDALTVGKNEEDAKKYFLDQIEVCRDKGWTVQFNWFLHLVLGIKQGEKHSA

| Compound | concentration of maximal effect on T cell expansion [1] [nM] | Cmax [3] [µM] | PI3K-δ inhibition at clinically achievable exposures (in words) [4] | PI3K-γ inhibition at clinically achievable exposures (in words) [5] | further results |
| --- | --- | --- | --- | --- | --- |
| C[C@H](Nc1ncnc2[nH]cnc12)c1cc2cccc(Cl)c2c(=O)n1-c1ccccc1 [Duvelisib, (S)-3-(1-((9H-purin-6-yl)amino)ethyl)-8-chloro-2-phenylisoquinolin-1(2H)-one] | 40 | 2.5 | inhibited both PI3K-δ and PI3K-γ | inhibited both PI3K-δ and PI3K-γ | increase in T cell expansion ([1]; T cells from human donors or CLL patients): 3 to 4 fold; degree of inhibition of PI3K-γ ([2]; cycle 2 Day 1 pre): decreased; inhibition of PI3K-γ ([2]; follicular lymphoma patients, 25 mg, 1 and 4 hours): 60-70%; cytotoxic activity of CAR-T cells to kill tumor cells [6]: increases; expression of T cell exhaustion markers (TIM-3, LAG-3) [7]: reduces expression; degree of inhibition of PI3K-δ ([8]; cycle 2 Day 1 pre (12 hour point before next dose)): decreased; inhibition at 25 mg ([8]; human, follicular lymphoma patients, 25 mg oral, 1 and 4 hours after dosing): 90 to 95%; proportion of early memory T cell populations [9]: increases the proportion of early memory T cell populations |
| C[C@H](NC(=O)c1c(N)nn2cccnc12)c1cc2cccc(C#Cc3cnn(C)c3)c2c(=O)n1-c1ccccc1 [IPI-549, 2-amino-N-[(1S)-1-[8-[2-(1-methylpyrazol-4-yl)ethynyl]-1-oxo-2-phenylisoquinolin-3-yl]ethyl]pyrazolo[1,5-a]pyrimidine-3-carboxamide] | – | 9.1 | not PI3K-δ | – | – |
| CC[C@H](Nc1ncnc2[nH]cnc12)c1nc2cccc(F)c2c(=O)n1-c1ccccc1 [Idelalisib, (S)-2-(1-(9H-purin-6-ylamino)propyl)-5-fluoro-3-phenylquinazolin-4(3H)-one] | 1000 | 4.8 | single isoform inhibition; also recorded: sufficient to inhibit PI3K-δ | not sufficient to inhibit PI3K-γ | – |
| CC[C@H](Nc1ncnc2nc[nH]c12)c1oc2ccccc2c(=O)c1-c1cccc(F)c1 [Tenalisib, (S)-2-(1-((7H-purin-6-yl)amino)propyl)-3-(3-fluorophenyl)-4H-chromen-4-one] | – | – | did not meaningfully inhibit | did not meaningfully inhibit | IC50 ([4]; whole blood, inhibition of p-Akt in LPS-stimulated monocytes, read-out: PI3Kδ IC50): > 50 µM; PI3Kγ IC50 ([5]; whole blood, inhibition of p-Akt in fMLP-stimulated monocytes): No inhibition |
| CC(C)Oc1ccc(-c2nn([C@@H](C)c3oc4ccc(F)cc4c(=O)c3-c3cccc(F)c3)c3ncnc(N)c23)cc1F [Umbralisib] | – | 9.2 | – | – | IC50 [5]: 55 ± 16 µM |
